# Values joined by “and” are separate entries in the source; they are usually repeats but may differ in a detail not shown here. Equal values may be shown once.
# Tested on: 415267-285-R-J2-PDC complex spheroid viability
# Assay: Anticancer human tumor 415267-285-R-J2-PDC patient-derived breast carcinoma cell line growth inhibition [POLQ]
# Settings: for viability, T/C: stronger effect = lower value
# Protocol: Multicellular complex tumor spheroid response to Polymerase (POL) inhibitors (novobiocin, ART-558, RP6685) in combination with a variety of drugs and investigational agents in selected tumor cell lines
# The POL inhibitors (novobiocin, ART-558, and RP6685) were evaluated both individually and in combination with standard of care and investigational anticancer small molecules within a complex spheroid model of solid tumors. . Complex spheroids include a stromal component modeled by human endothelial cells (HUVEC) and fibroblasts modeled by human mesenchymal stem cells (MSCs). The concentration ranges selected for each drug and investigational agent were based upon clinically achievable concentrations if the clinical Cmax of the agent was known.
# Compounds. The drugs and investigational agents: novobiocin (NSC847541), ART-558 (NSC835418), RP-6685 (NSC848927), peposertib (NSC802822), ceralasertib (NSC780249), elimusertib (NSC800525), camonsertib (NSC841442), AZD-1390 (NSC803789), olaparib (NSC753686), talazoparib (NSC767125), rucaparib (NSC756644), sotorasib (NSC818433), MRTX-1133 (NSC836407), SN-38 (NSC673596), topotecan (NSC609699), epotoside (NSC141540), doxorubicin (NSC123127), gemcitabine (NSC613327), 5-fluorouracil (NSC19893), paclitaxel (NSC125973), vemurafenib (NSC761431), MSA-2 (NSC828583), SN-011 (NSC837082), adavosertib (NSC754352), prexasertib (NSC758257), carboplatin (NSC241240) and oxaliplatin (NSC266046), were obtained from the National Cancer Institute (NCI) Developmental Therapeutics Program Chemical Repository (21). The FDA-approved anticancer drug set is available from the Developmental Therapeutics Program at https://dtp.cancer.gov/organization/dscb/obtaining/. […] The stock solutions were prepared in dimethyl sulfoxide (DMSO, Sigma-Aldrich, St. Louis, MO, cat. D2650), except for the platinum compounds which were prepared in saline (Quality Biological, Gaithersburg, MD, cat. 114-055-101), at 800-fold the tested concentration and stored at -70 degrees C prior to their use. All drugs and investigational agents were tested over a range starting from a high concentration at or near the clinical Cmax and decreasing in half-log increments. If the clinical Cmax for an agent had not been determined, the highest concentration tested was 10 microM, except for SN-38, which was tested at a high concentration of 1 microM.
# Cell Culture. All cells were maintained in an incubator at 37 degrees C and 5% CO2 with 95% humidity. The PDC lines were cultured according to standard operating procedures established by the NCI PDMR (https://pdmr.cancer.gov). Table 3 of the manuscript, lists the cell lines along with the number of the three cell types plated to form the mct-spheroids and media for tumor cell growth. After thawing, all PDC lines, except 997537-175-T-J1-PDC and 415267-285-R-J2-PDC, were cultured in Matrigel-coated flasks prepared with a working solution of 1X Ham's F-12 nutrient mix, without supplementation (Thermo Fisher Scientific, cat. 11765054), 100 U/mL penicillin-streptomycin (Thermo Fisher Scientific, cat. 15140122), and 2.5% Matrigel (Corning Inc., Corning, NY, cat. 354248) for the first three passages. The two PDC lines 997537-175-T-J1-PDC and 415267-285-R-J2-PDC were cultured on uncoated flasks. The 857933-349-R-J2-PDC line was cultured in 6C/Colon 1B media containing advanced DMEM/F-12 (Thermo Fisher Scientific, cat. 12634028), 10 mM HEPES (Thermo Fisher Scientific, cat. 15630080), 1X GlutaMAX supplement (Thermo Fisher Scientific, cat. 35050061), 0.1 mg/mL primocin (InvivoGen, San Diego, CA, cat. ant-pm-2), 10% defined fetal bovine serum, heat inactivated (HyClone Laboratories Inc., Logan, UT, cat. SH30070.03HI), 50% L-WRN conditioned media (ATCC, cat. CRL-3276), 1.25 mM N-Acetyl-L-cysteine (Sigma-Aldrich, cat. A9165), 10 mM nicotinamide (Sigma-Aldrich, cat. N0636), 1X B-27 supplement (Thermo Fisher Scientific, cat. 17504044), 1X N-2 supplement (Thermo Fisher Scientific, cat. […]
# [1] = curve of first compound, second compound 0.0316 µM
# [2] = curve of first compound, second compound 0.1 µM
# [3] = curve of first compound, second compound 0.316 µM
# [4] = curve of first compound, second compound 1 µM
# [5] = curve of first compound, second compound 3.16 µM
# [6] = curve of first compound, second compound 10 µM
# [7] = second compound 0.0316 µM, first compound 0.0316 µM
# [8] = second compound 0.0316 µM, first compound 0.1 µM
# [9] = second compound 0.0316 µM, first compound 0.316 µM
# [10] = second compound 0.0316 µM, first compound 1 µM
# [11] = second compound 0.0316 µM, first compound 3.16 µM
# [12] = second compound 0.0316 µM, first compound 10 µM
# [13] = second compound 0.1 µM, first compound 0.0316 µM
# [14] = second compound 0.1 µM, first compound 0.1 µM
# [15] = second compound 0.1 µM, first compound 0.316 µM
# [16] = second compound 0.1 µM, first compound 1 µM
# [17] = second compound 0.1 µM, first compound 3.16 µM
# [18] = second compound 0.1 µM, first compound 10 µM
# [19] = second compound 0.316 µM, first compound 0.0316 µM
# [20] = second compound 0.316 µM, first compound 0.1 µM
# [21] = second compound 0.316 µM, first compound 0.316 µM
# [22] = second compound 0.316 µM, first compound 1 µM
# [23] = second compound 0.316 µM, first compound 3.16 µM
# [24] = second compound 0.316 µM, first compound 10 µM
# [25] = second compound 1 µM, first compound 0.0316 µM
# [26] = second compound 1 µM, first compound 0.1 µM
# [27] = second compound 1 µM, first compound 0.316 µM
# [28] = second compound 1 µM, first compound 1 µM
# [29] = second compound 1 µM, first compound 3.16 µM
# [30] = second compound 1 µM, first compound 10 µM
# [31] = second compound 3.16 µM, first compound 0.0316 µM
# [32] = second compound 3.16 µM, first compound 0.1 µM
# [33] = second compound 3.16 µM, first compound 0.316 µM
# [34] = second compound 3.16 µM, first compound 1 µM
# [35] = second compound 3.16 µM, first compound 3.16 µM
# [36] = second compound 3.16 µM, first compound 10 µM
# [37] = second compound 10 µM, first compound 0.0316 µM
# [38] = second compound 10 µM, first compound 0.1 µM
# [39] = second compound 10 µM, first compound 0.316 µM
# [40] = second compound 10 µM, first compound 1 µM
# [41] = second compound 10 µM, first compound 3.16 µM
# [42] = second compound 10 µM, first compound 10 µM
# 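Further: spheroids exposed to compounds for one week before readout.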
# 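Wherever viability, T/C is given: luminescence used as stand-in measure of viable cells; 100% = DMSO vehicle control viability.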
compound,measurement,setting,value
CCc1c2c(nc3ccc(O)cc13)-c1cc3c(c(=O)n1C2)COC(=O)[C@]3(O)CC,"viability, T/C",compound 0.00316 µM,32.2% and 58.6% and 31.9%
same,"viability, T/C",compound 0.01 µM,9.97% and 8.74% and 13.6%
same,"viability, T/C",compound 0.0316 µM,5.41% and 4.4% and 6.58%
same,"viability, T/C",compound 0.1 µM,4.94% and 2.95% and 3.9%
same,"viability, T/C",compound 0.316 µM,2.72% and 1.83% and 3.74%
same,"viability, T/C",compound 1 µM,1.69% and 0.99% and 1.42%
same,IC50,curve of compound,< 3.16 nM and 3.85 nM
CC1COCCN1c1cc(C2(O)CC3CCC(C2)O3)c2cnn(-c3ccn[nH]3)c2n1 (stereo not given) + Nc1ccc(C#CCN(C(=O)Cc2ncc(C(F)(F)F)cc2C(F)(F)F)c2ccc(F)cc2)nn1,IC50,[1],< 31.6 nM
same,IC50,[2],< 31.6 nM
same,IC50,[3],< 31.6 nM
same,IC50,[4],< 31.6 nM
same,IC50,[5],< 31.6 nM
same,IC50,[6],< 31.6 nM
same,"viability, T/C",[7],19.2%
same,"viability, T/C",[8],6.63%
same,"viability, T/C",[9],4.19%
same,"viability, T/C",[10],3.59%
same,"viability, T/C",[11],4.18%
same,"viability, T/C",[12],5.72%
same,"viability, T/C",[13],22%
same,"viability, T/C",[14],6.34%
same,"viability, T/C",[15],5.38%
same,"viability, T/C",[16],4.69%
same,"viability, T/C",[17],3.81%
same,"viability, T/C",[18],2.94%
same,"viability, T/C",[19],22.7%
same,"viability, T/C",[20],6.83%
same,"viability, T/C",[21],4.18%
same,"viability, T/C",[22],3.94%
same,"viability, T/C",[23],3.9%
same,"viability, T/C",[24],2.58%
same,"viability, T/C",[25],18.7%
same,"viability, T/C",[26],5.19%
same,"viability, T/C",[27],4.87%
same,"viability, T/C",[28],3.6%
same,"viability, T/C",[29],3.79%
same,"viability, T/C",[30],2.6%
same,"viability, T/C",[31],16.6%
same,"viability, T/C",[32],5.61%
same,"viability, T/C",[33],4.81%
same,"viability, T/C",[34],3.47%
same,"viability, T/C",[35],3.8%
same,"viability, T/C",[36],3.42%
same,"viability, T/C",[37],16.1%
same,"viability, T/C",[38],6.98%
same,"viability, T/C",[39],5.96%
same,"viability, T/C",[40],4.12%
same,"viability, T/C",[41],3.92%
same,"viability, T/C",[42],3.05%
C=CCn1c(=O)c2cnc(Nc3ccc(N4CCN(C)CC4)cc3)nc2n1-c1cccc(C(C)(C)O)n1,"viability, T/C",compound 0.00316 µM,93.5% and 109% and 105%
same,"viability, T/C",compound 0.01 µM,94% and 116% and 97.7%
same,"viability, T/C",compound 0.0316 µM,106% and 108% and 97.9%
same,"viability, T/C",compound 0.1 µM,99.5% and 96.9% and 95.5%
same,"viability, T/C",compound 0.316 µM,46.4% and 73.5% and 68.8%
same,"viability, T/C",compound 1 µM,7.6% and 7.2% and 5.6%
same,IC50,curve of compound,292 nM and 471 nM and 446 nM
CCc1cc2c(N3CCc4c(cc(Cn5ccnc5)cc4-c4cn(C)nc4C(F)(F)F)C3=O)ccnc2c(OC)n1,"viability, T/C",compound 0.0316 µM,82.8% and 92.9% and 84.3%
same,"viability, T/C",compound 0.1 µM,82.9% and 92.8% and 96.7%
same,"viability, T/C",compound 0.316 µM,85.8% and 89.2% and 90.2%
same,"viability, T/C",compound 1 µM,83.7% and 94.3% and 90%
same,"viability, T/C",compound 3.16 µM,82.2% and 82.6% and 86.5%
same,"viability, T/C",compound 10 µM,75.7% and 84.4% and 75.4%
same,IC50,curve of compound,> 10000 nM
COc1cccc2c1C(=O)c1c(O)c3c(c(O)c1C2=O)CC(O)(C(=O)CO)CC3OC1CC(N)C(O)C(C)O1 (stereo not given) + Cc1cccc(N(C)C(=O)C2C(O)CCN2c2nc(C)cc(C(F)(F)F)c2C#N)c1,IC50,[1],< 31.6 nM
same,IC50,[2],< 31.6 nM
same,IC50,[3],< 31.6 nM
same,IC50,[4],< 31.6 nM
same,IC50,[5],< 31.6 nM
same,IC50,[6],< 31.6 nM
same,"viability, T/C",[7],37.8%
same,"viability, T/C",[8],18.6%
same,"viability, T/C",[9],4.26%
same,"viability, T/C",[10],0.86%
same,"viability, T/C",[11],1%
same,"viability, T/C",[12],2.87%
same,"viability, T/C",[13],38.3%
same,"viability, T/C",[14],11.9%
same,"viability, T/C",[15],5.5%
same,"viability, T/C",[16],0.82%
same,"viability, T/C",[17],0.95%
same,"viability, T/C",[18],3.55%
same,"viability, T/C",[19],36.5%
same,"viability, T/C",[20],13.7%
same,"viability, T/C",[21],4.69%
same,"viability, T/C",[22],0.81%
same,"viability, T/C",[23],1.46%
same,"viability, T/C",[24],2.87%
same,"viability, T/C",[25],42.5%
same,"viability, T/C",[26],8.66%
same,"viability, T/C",[27],4.35%
same,"viability, T/C",[28],0.62%
same,"viability, T/C",[29],1.26%
same,"viability, T/C",[30],2.94%
same,"viability, T/C",[31],40.4%
same,"viability, T/C",[32],13.7%
same,"viability, T/C",[33],5.27%
same,"viability, T/C",[34],0.66%
same,"viability, T/C",[35],1.47%
same,"viability, T/C",[36],2.63%
same,"viability, T/C",[37],24.7%
same,"viability, T/C",[38],9.06%
same,"viability, T/C",[39],7.17%
same,"viability, T/C",[40],0.84%
same,"viability, T/C",[41],3.16%
same,"viability, T/C",[42],3.87%

# From PubChem BioAssay AID1963847 (Molecular Pharmacology Branch, DTP, NCI, 2024)
